The assay deals with T1, Human KDR (Homo sapiens, UniProt P35968).
T1 construct: expressed in transfected cells; host or cells: NIH3T3 cells (mouse fibroblasts)
As to the kind of experiment: Inhibition of KDR phosphorylation in human KDR-transfected NIH3T3 cells (ELISA). Type of assay: cell-based. The following applies: for Selection ratio (KDR phosphorylation IC50 / c-fms phosphorylation IC50): class 0-3; for IC50: human KDR-transfected NIH3T3 cells, VEGF 100 ng/ml, ELISA, read-out: KDR phosphorylation 50% inhibitory concentration (IC50). The protocol: Human KDR-transfected NIH3T3 cells (Sawano A et al., Cell Growth & Differentiation, 7, 213-221 (1996)) were cultured in a DMEM medium containing 10% fetal calf serum (purchased from GIBCO BRL) within a 5% carbon dioxide incubator until 50 to 70% confluent. The harvested cells were seeded into wells, containing the same medium, in a collagen type 1 coat 96-well flat-bottom plate in an amount of 1.5×10^4 per well, and cultured at 37° C. overnight. The medium was replaced with a 0.1% fetal calf serum-containing DMEM medium. The test compound dissolved in dimethyl sulfoxide was added to each well, and the cultivation was continued at 37° C. for additional one hr. A human recombinant vascular endothelial growth factor (hereinafter abbreviated to “VEGF”) was added to a final concentration of 100 ng/ml, followed by stimulation of cells at 37° C. for 2 min. The medium was removed, and the cells were washed with phosphate buffered saline (pH 7.4). A solubilization buffer (50 μl) (20 mM HEPES (pH 7.4), 150 mM NaCl, 0.2% Triton X-100, 10% glycerol, 5 mM sodium orthovanadylate, 5 mM disodium ethylenediaminetetraacetate, and 2 mM Na4P2O7) was then added thereto. The mixture was shaken at 4° C. for 2 hr to prepare a cell extract.
Separately, phosphate buffered saline (50 μl, pH 7.4) containing 5 μg/ml of anti-phospho-tyrosine antibody (PY20; purchased from Transduction Laboratories) was added to a microplate for ELISA (Maxisorp; purchased from NUNC), followed by standing at 4° C. overnight to be immobilized on the wells. After washing of the plate, 300 μl of a blocking solution was added, followed by standing at room temperature for 2 hr to perform blocking. After washing, the whole cell extract was transferred and was allowed to stand at 4° C. overnight. After washing, an anti-KDR antibody (purchased from Santa Cruz Biotechnology) was allowed to react at room temperature for one hr. Further, after washing, a peroxidase-labeled anti-rabbit Ig antibody (purchased from Amersham) was allowed to react at room temperature for one hr. After washing, a chromophoric substrate for peroxidase (purchased from Sumitomo Bakelite Co., Ltd.) was added thereto to initiate a reaction. After a suitable level of color development, a reaction termination solution was added to stop the reaction, and the absorbance at 450 nm was measured with a microplate reader. The KDR phosphorylation activity for each well was determined by presuming the absorbance without the addition of the test compound and with the addition of VEGF to be 100% KDR phosphorylation activity and the absorbance without the addition of the test compound and VEGF to be 0% KDR phosphorylation activity. The concentration of the test compound was varied on several levels, the KDR phosphorylation inhibitory rate was determined for each case, and the concentration of the test compound necessary for inhibiting 50% of KDR phosphorylation (IC50) was calculated.

Some results are limits rather than exact numbers.

T1 sequence (P35968 20-1356): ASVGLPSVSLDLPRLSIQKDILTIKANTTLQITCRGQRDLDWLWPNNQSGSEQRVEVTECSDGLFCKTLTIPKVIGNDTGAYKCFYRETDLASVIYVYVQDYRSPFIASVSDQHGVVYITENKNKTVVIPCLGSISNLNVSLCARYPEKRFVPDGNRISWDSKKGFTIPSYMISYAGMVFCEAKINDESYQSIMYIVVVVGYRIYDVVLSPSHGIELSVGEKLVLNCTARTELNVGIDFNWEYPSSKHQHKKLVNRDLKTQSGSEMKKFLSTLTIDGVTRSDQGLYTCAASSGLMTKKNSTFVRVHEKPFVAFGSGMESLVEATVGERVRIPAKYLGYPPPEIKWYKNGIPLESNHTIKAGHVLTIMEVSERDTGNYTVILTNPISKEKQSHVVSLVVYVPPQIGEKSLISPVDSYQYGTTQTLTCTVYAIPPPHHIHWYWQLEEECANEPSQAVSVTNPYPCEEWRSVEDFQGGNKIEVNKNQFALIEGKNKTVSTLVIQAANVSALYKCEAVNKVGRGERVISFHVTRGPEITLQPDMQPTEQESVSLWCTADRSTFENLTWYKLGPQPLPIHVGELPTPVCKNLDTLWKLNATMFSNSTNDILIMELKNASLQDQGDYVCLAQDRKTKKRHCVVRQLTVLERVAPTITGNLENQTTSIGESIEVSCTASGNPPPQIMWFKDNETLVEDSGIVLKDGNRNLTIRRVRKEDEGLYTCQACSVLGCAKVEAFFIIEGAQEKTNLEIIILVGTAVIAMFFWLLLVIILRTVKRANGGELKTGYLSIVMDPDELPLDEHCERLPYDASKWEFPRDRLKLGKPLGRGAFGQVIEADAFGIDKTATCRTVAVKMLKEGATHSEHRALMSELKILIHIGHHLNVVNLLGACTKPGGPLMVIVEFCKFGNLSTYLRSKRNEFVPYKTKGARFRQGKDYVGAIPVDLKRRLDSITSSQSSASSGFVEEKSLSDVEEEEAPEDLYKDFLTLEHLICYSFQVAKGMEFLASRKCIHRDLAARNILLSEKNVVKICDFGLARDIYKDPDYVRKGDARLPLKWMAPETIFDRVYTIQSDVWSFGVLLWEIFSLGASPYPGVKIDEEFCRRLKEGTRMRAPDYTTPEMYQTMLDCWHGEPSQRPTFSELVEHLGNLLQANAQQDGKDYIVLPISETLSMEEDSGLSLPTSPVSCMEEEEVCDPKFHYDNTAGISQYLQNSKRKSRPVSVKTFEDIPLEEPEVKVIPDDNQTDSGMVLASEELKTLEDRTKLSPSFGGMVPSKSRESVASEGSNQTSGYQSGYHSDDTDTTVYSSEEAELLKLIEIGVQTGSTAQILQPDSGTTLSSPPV

As for `COc1cc2nccc(Oc3ccc(NC(=O)NC(C)c4ccc(F)cc4)c(C)c3)c2cc1OC` (centres unmarked) [Example 13, N-{4-[(6,7-Dimethoxy-4-quinolyl)oxy]-2-methylphenyl}-N′-[1-(4-fluorophenyl)ethyl]urea], the “Selection ratio (KDR phosphorylation IC50 / c-fms phosphorylation IC50)” value is 0 (KDR phosphorylation 50% inhibitory concentration [μM]/c-fms phosphorylation 50% inhibitory concentration [μM] was less than 5) and the IC50 is under 0.001 µM.

On to `COc1cc2nccc(Oc3ccc(NC(=O)N[C@H](C)c4nccs4)c(F)c3)c2cc1OC` [Example 72, N-{4-[(6,7-Dimethoxy-4-quinolyl)oxy]-2-fluorophenyl}-N′-[(1R)-1-(1,3-thiazol-2-yl)ethyl]urea], for which the “Selection ratio (KDR phosphorylation IC50 / c-fms phosphorylation IC50)” value was 1 (when the value was 5 or more) and the IC50 turned out to be 0.0356 µM.

Take `COc1cc2nccc(Oc3ccc(NC(=O)N[C@H](C)c4cccc(Br)c4)cc3OC)c2cc1OC` [Example 61, N-[(1R)-1-(3-Bromophenyl)ethyl]-N′-{4-[(6,7-dimethoxy-4-quinolyl)oxy]-3-methoxyphenyl}urea]: the “Selection ratio (KDR phosphorylation IC50 / c-fms phosphorylation IC50)” value is 0 (KDR phosphorylation 50% inhibitory concentration [μM]/c-fms phosphorylation 50% inhibitory concentration [μM] was less than 5) and the IC50 is 0.0192 µM.

In the case of `COc1cc2c(Oc3ccc(NC(=O)NC(C)c4ccc(F)c(F)c4)c(F)c3)ccnc2cc1OCCCN1CCOCC1` (centres unmarked) [Example 68, N-[1-(3,4-Difluorophenyl)ethyl]-N′-(2-fluoro-4-{[6-methoxy-7-(3-morpholinopropoxy)-4-quinolyl]oxy}phenyl)urea], the “Selection ratio (KDR phosphorylation IC50 / c-fms phosphorylation IC50)” value was 0 (KDR phosphorylation 50% inhibitory concentration [μM]/c-fms phosphorylation 50% inhibitory concentration [μM] was less than 5) and the IC50 came out at 0.0056 µM.

As to `COc1ccc([C@H](C)NC(=O)Nc2ccc(Oc3ccnc4cc(OC)c(OC)cc34)cc2)cc1` [Example 53, N-{4-[(6,7-Dimethoxy-4-quinolyl)oxy]phenyl}-N′-[(1S)-1-(4-methoxyphenyl)ethyl]urea], the “Selection ratio (KDR phosphorylation IC50 / c-fms phosphorylation IC50)” value is on record as 2 (when the value was 10 or more) and the IC50 came out at 0.0374 µM.

In the case of `COc1cc2nccc(Oc3ccc(NC(=O)NC(C)c4nccs4)c(C(F)(F)F)c3)c2cc1OC` (centres unmarked) [Example 83, N-[4-[(6,7-Dimethoxy-4-quinolyl)oxy]-2-(trifluoromethyl)phenyl]-N′-[1-(1,3-thiazol-2-yl)ethyl]urea], the “Selection ratio (KDR phosphorylation IC50 / c-fms phosphorylation IC50)” value was 0 (KDR phosphorylation 50% inhibitory concentration [μM]/c-fms phosphorylation 50% inhibitory concentration [μM] was less than 5) and the IC50 was 0.0079 µM.

`COc1cc2nccc(Oc3ccc(NC(=O)N[C@@H](C)c4nccs4)cc3)c2cc1OC` [Example 78, N-{4-[(6,7-Dimethoxy-4-quinolyl)oxy]phenyl}-N′-[(S)-1-(1,3-thiazol-2-yl)ethyl]urea]: the “Selection ratio (KDR phosphorylation IC50 / c-fms phosphorylation IC50)” value is 2 (when the value was 10 or more) and the IC50 came to 0.0539 µM.

For the compound `COc1cc2c(Oc3ccc(NC(=O)NC(C)c4ccc(F)c(F)c4)cc3F)ccnc2cc1OCCCN1CCOCC1` (centres unmarked) [Example 65, N-[1-(3,4-Difluorophenyl)ethyl]-N′-(3-fluoro-4-{[6-methoxy-7-(3-morpholinopropoxy)-4-quinolyl]oxy}phenyl)urea], the “Selection ratio (KDR phosphorylation IC50 / c-fms phosphorylation IC50)” value was 0 (KDR phosphorylation 50% inhibitory concentration [μM]/c-fms phosphorylation 50% inhibitory concentration [μM] was less than 5) and the IC50 came to 0.0319 µM.

Regarding `COc1cc2nccc(Oc3ccc(NC(=O)NC(C)c4ccc(F)cc4)cc3OC)c2cc1OC` (centres unmarked) [Example 22, N-{4-[(6,7-Dimethoxy-4-quinolyl)oxy]-3-methoxyphenyl}-N′-[1-(4-fluorophenyl)ethyl]urea], the “Selection ratio (KDR phosphorylation IC50 / c-fms phosphorylation IC50)” value is 0 (KDR phosphorylation 50% inhibitory concentration [μM]/c-fms phosphorylation 50% inhibitory concentration [μM] was less than 5) and the IC50 is 0.0039 µM.

With `COc1cc2nccc(Oc3ccc(NC(=O)N[C@H](C)c4ccc(F)cc4)c(C)c3C)c2cc1OC` [Example 27, N-{4-[(6,7-Dimethoxy-4-quinolyl)oxy]-2,3-dimethylphenyl}-N′-[(1R)-1-(4-fluorophenyl)ethyl]urea], the “Selection ratio (KDR phosphorylation IC50 / c-fms phosphorylation IC50)” value was 0 (KDR phosphorylation 50% inhibitory concentration [μM]/c-fms phosphorylation 50% inhibitory concentration [μM] was less than 5) and the IC50 came out at 0.002 µM.

In the case of `COc1cc2nccc(Oc3cc(C)c(NC(=O)N[C@H](C)c4ccc(F)cc4)cc3C)c2cc1OC` [Example 9, N-{4-[(6,7-Dimethoxy-4-quinolyl)oxy]-2,5-dimethylphenyl}-N′-[(1R)-1-(4-fluorophenyl)ethyl]urea], the “Selection ratio (KDR phosphorylation IC50 / c-fms phosphorylation IC50)” value is 0 (KDR phosphorylation 50% inhibitory concentration [μM]/c-fms phosphorylation 50% inhibitory concentration [μM] was less than 5) and the IC50 was 0.0027 µM.

In the case of `COc1cc2nccc(Oc3ccc(NC(=O)N[C@@H](C)c4ccc(F)cc4)c(C)c3)c2cc1OC` [Example 14, N-{4-[(6,7-Dimethoxy-4-quinolyl)oxy]-2-methylphenyl}-N′-[(1S)-1-(4-fluorophenyl)ethyl]urea], the “Selection ratio (KDR phosphorylation IC50 / c-fms phosphorylation IC50)” value is reported as 1 (when the value was 5 or more) and the IC50 worked out at 0.0688 µM.

`COc1cc2nccc(Oc3ccc(NC(=O)N[C@@H](C)c4ccc(F)cc4)cc3OC)c2cc1OC` [Example 23, N-{4-[(6,7-Dimethoxy-4-quinolyl)oxy]-3-methoxyphenyl}-N′-[(1S)-1-(4-fluorophenyl)ethyl]urea]: the “Selection ratio (KDR phosphorylation IC50 / c-fms phosphorylation IC50)” value is 3 (when the value was 50 or more) and the IC50 was found to be 0.6 µM.

On to `COc1cc2nccc(Oc3ccc(NC(=O)N[C@H](C)c4cccc(Br)c4)c(Cl)c3)c2cc1OC` [Example 55, N-[(1R)-1-(3-Bromophenyl)ethyl]-N′-{2-chloro-4-[(6,7-dimethoxy-4-quinolyl)oxy]phenyl}urea], for which the “Selection ratio (KDR phosphorylation IC50 / c-fms phosphorylation IC50)” value was 0 (KDR phosphorylation 50% inhibitory concentration [μM]/c-fms phosphorylation 50% inhibitory concentration [μM] was less than 5) and the IC50 came out at 0.0016 µM.

Turning to `COc1cc2c(Oc3ccc(NC(=O)NC(C)c4ccc(F)cc4F)c(F)c3)ccnc2cc1OCCCN1CCOCC1` (centres unmarked) [Example 69, N-[1-(2,4-Difluorophenyl)ethyl]-N′-(2-fluoro-4-{[6-methoxy-7-(3-morpholinopropoxy)-4-quinolyl]oxy}phenyl)urea], the “Selection ratio (KDR phosphorylation IC50 / c-fms phosphorylation IC50)” value was 0 (KDR phosphorylation 50% inhibitory concentration [μM]/c-fms phosphorylation 50% inhibitory concentration [μM] was less than 5) and the IC50 amounted to 0.0052 µM.

Turning to `COc1cc2nccc(Oc3ccc(NC(=O)N[C@@H](C)c4ccc(F)cc4)c(C)c3C)c2cc1OC` [Example 26, N-{4-[(6,7-Dimethoxy-4-quinolyl)oxy]-2,3-dimethylphenyl}-N′-[(1S)-1-(4-fluorophenyl)ethyl]urea], the “Selection ratio (KDR phosphorylation IC50 / c-fms phosphorylation IC50)” value is 1 (when the value was 5 or more) and the IC50 was found to be 0.155 µM.

Values taken from patent US7598258B2, “Quinoline derivatives and quinazoline derivatives inhibiting autophosphorylation of macrophage colony stimulating factor receptor” (Kirin Beer Kabushiki Kaisha, priority 2002, dated 2009).
